Laboratory results taken from patent publication US20250064799A1, “ORAL FORMULATIONS OF LEVOSIMENDAN FOR TREATING PULMONARY HYPERTENSION WITH HEART FAILURE WITH PRESERVED EJECTION FRACTION” (Tenax Therapeutics, Inc., priority 2021, published 2025).
“And” between values parts separate entries of the source, which are not always exact repeats. Equal values may be shown once.

Tests used:
[1] = system: phosphodiesterase-3 (PDE3); conditions: cited from earlier work
[2] = system: whole cardiomyocytes and isolated contractile apparatus preparations; conditions: cited from earlier work
[3] = OR-1896 plasma concentration, I.V. to oral transition pharmacokinetic study; format: in vivo, human; conditions: individual patients
Text: FIGS. 6A-6W: Pharmacokinetic Data from the Levosimendan I.V. to Oral Transition Study. […] FIGS. 6D-6U show patient OR-1896 plasma concentrations (ng/ml, y-axis) for each patient in the I.V. to oral transition study. The respective patient number is indicated above each graph. FIG. 6V: Individual Patient Change in 6-minute walk distance (6MWD) at Week 6 (y-axis) by OR-1896 plasma concentration (Week 6) (x-axis). FIG. 6W: Individual Patient Change in Heart Rate (Week 0 to Week 6) (y-axis) by OR-1896 plasma concentration (Week 6) (x-axis).

PDE4 = conditions: cited from earlier work
[4] = heart failure subjects; cited from earlier work
patients with PH-HFpEF = conditions: in vivo; cited from earlier work
[5] = system: HFpEF, HFrEF, or PH-HFpEF patients; conditions: empagliflozin alone; cited from earlier work
[6] = system: patients with left heart disease; conditions: in vivo; cited from earlier work
PH-HFpEF patients [7] = conditions: in vivo; cited from earlier work
PH-HFpEF patients [8] = conditions: after 12 weeks, 52 patients; cited from earlier work
patients with HFpEF = conditions: long term treatment, 216 patients; cited from earlier work
HFpEF patients [9] = conditions: inhaled 3 times a day for 4 weeks; cited from earlier work
HFpEF patients [10] = conditions: in vivo; cited from earlier work

For CC(=O)Nc1ccc(C2=NNC(=O)C[C@H]2C)cc1 [OR-1896, (R)—N-(4-(4-methyl-6-oxo-1,4,5,6-tetraihydropyridazin-3-yl)phenyl) acetamide], the “potency in inhibition of PDE3 relative to levosimendan” value [1] is given as “profoundly less potent”, the “inotropic effects relative to levosimendan” value [2] is given as “equipotent” and the “OR-1896 Plasma concentration, Week 6” value ([3]; daily 3 mg oral levosimendan) is given as 13.0 ng/mL and 8.44 ng/mL and 4.04 ng/mL and 8.73 ng/mL and 29.0 ng/mL and 8.15 ng/mL and 1.97 ng/mL and 13.4 ng/mL and 34.1 ng/mL and 7.72 ng/mL and 22.9 ng/mL and 16.5 ng/mL and 12.7 ng/mL and 21.9 ng/mL and 12.3 ng/mL and 5.15 ng/mL. The “OR-1896 Plasma concentration, Week 4” value ([3]; oral levosimendan titration) was 8.86 ng/mL and 6.14 ng/mL and 6.28 ng/mL and 1.39 ng/mL and 12.6 ng/mL and 11.6 ng/mL and 32.9 ng/mL and 7.96 ng/mL and 13.1 ng/mL and 6.50 ng/mL and 5.90 ng/mL, the “OR-1896 Plasma concentration, Week 8” value ([3]; oral levosimendan, patients titrated at Week 6) was 3.47 ng/ml and 38.7 ng/ml and 69.9 ng/ml and 2.93 ng/ml and 25.5 ng/ml (2×) and 10.9 ng/ml and the “OR-1896 Plasma concentration, Week 0” value ([3]; weekly I.V. levosimendan) was 4.46 ng/mL and 2.22 ng/mL and 0.730 ng/mL and 0.197 ng/mL and 12.2 ng/mL and 3.16 ng/mL and 0.787 ng/mL and 6.89 ng/mL and 36.1 ng/mL and 2.11 ng/mL and 0.00 ng/mL and 6.32 ng/mL and 2.81 ng/mL and 4.86 ng/mL and 3.77 ng/mL and 1.19 ng/mL. For the same compound, the “potency in inhibition of PDE4 relative to levosimendan” value (PDE4) was “profoundly less potent” and the half-life [4] was 70 to 80 h.
For COc1ccccc1Oc1c(NS(=O)(=O)c2ccc(C(C)(C)C)cc2)nc(-c2ncccn2)nc1OCCO [bosentan], the “clinical outcomes versus placebo” value (patients with PH-HFpEF) is given as “worse clinical outcomes” and the “six minute walk test or echocardiographic evaluation of pulmonary hypertension” value (patients with PH-HFpEF) is given as “no improvements”.
For OC[C@H]1O[C@@H](c2ccc(Cl)c(Cc3ccc(O[C@H]4CCOC4)cc3)c2)[C@H](O)[C@@H](O)[C@@H]1O [empagliflozin], the “change in exercise capacity as measured by 6MWD” value [5] is listed as “did not demonstrate a material change”.
For CCCNS(=O)(=O)Nc1ncnc(OCCOc2ncc(Br)cn2)c1-c1ccc(Br)cc1 [macitentan], the “hemodynamic parameters (pulmonary vascular resistance, mean pulmonary arterial pressure, pulmonary artery wedge pressure)” value [6] is given as “no change”.
In the case of COC(=O)N(C)c1c(N)nc(-c2nn(Cc3ccccc3F)c3ncccc23)nc1N [riociguat], the “mean pulmonary arterial pressure (primary outcome)” value (PH-HFpEF patients [7]) is given as “primary outcome was not achieved”.
In the case of CCCc1nn(C)c2c(=O)[nH]c(-c3cc(S(=O)(=O)N4CCN(C)CC4)ccc3OCC)nc12 [sildenafil], the “change in mPAP” value (PH-HFpEF patients [8]) is listed as “no change” and the “six-minute walk time, clinical status, or quality of life” value (patients with HFpEF) is listed as “failed to improve”.
For O=NO [sodium nitrite], the “peak oxygen consumption during cardiopulmonary exercise (primary endpoint) and secondary endpoints” value (HFpEF patients [9]) is given as “unable to demonstrate any improvement”.
In the case of COC(=O)Nc1c(N)nc(-c2nn(Cc3ccccc3F)c3ncc(F)cc23)nc1N [vericiguat], the primary endpoints (HFpEF patients [10]) is listed as “no significant changes”.
